Results from paper PMC4997316, “A ruthenium polypyridyl intercalator stalls DNA replication forks, radiosensitizes human cancer cells and is enhanced by Chk1 inhibition” (Scientific Reports, 2016).

Experiments:
[1] = system: HeLa cells; assay: quantification of apoptotic morphology (pyknosis/karyorrhexis); type: cell-based, human; settings: single-agent treatment, 48 h (1 40 μM; CHIR-124 500 nM)
Method: With this in mind, and considering the strong Chk1 activation in response to 1, HeLa cervical cancer cells, which are […][44], were exposed to a combination of 1 plus the Chk1 inhibitor CHIR-124[45] and the impact of co-treatment upon cell viability determined. A non-cytotoxic dose of 500 nM CHIR-124 was used and results were compared to single-agent treatment. […] Minimal enhancement of the anti-proliferative effect of 2 by CHIR-124 was observed (Fig. S15b), in agreement with 2 operating via a Chk1-independent mechanism.
Figure 5 Concurrent treatment of [Ru(dppz)2(PIP)]^2+ plus the Chk1 inhibitor CHIR-124 potentiates synergistic apoptosis in cancer cells. (a) Viability of HeLa (cervical cancer) or hSAEC1-KT (normal epithelial) cells after incubation with 1 in the absence or presence of Chk1 inhibitor CHIR-124 (500 nM) for 48 h constant exposure. (b) Morphological evidence for apoptosis (pyknosis/karyorrhexis, arrows) in HeLa cells treated with 40 μM 1 plus CHIR-124 for 48 h. Scale bars = 20 μm. (c) Quantification of apoptotic cells for experimental conditions as shown in (b). Equivalent results for 2 (40 μM, 48 h) included. Data mean of two independent experiments +/− SD. […] (f) Quantification of γH2AX foci from cells treated as in (e). […] Minimum of 150 cells counted per experiment. […]

[2] = system: HeLa cervical cancer cells; assay: MTT proliferation assay, HeLa; type: cell-based, human; settings: 24 h proliferation assay
Method: (§1) (LC3 = Microtubule-associated protein light chain 3) (Fig. 2b, bottom).
(§2) Cells were seeded in 96 well plates at 20,000 cells/well, allowed to proliferate for 24 h before treatment as described in the main text. 0.5 mg ml^−1 MTT (thiazolyl blue tetrazolium bromide) dissolved in serum-free media was added for 60 minutes and the formazan product eluted using acidified isopropanol. The absorbance at 540 nm was quantified by plate reader (reference wavelength 650 nm). The metabolic activity of the cell population was determined as a percentage of a negative (solvent) control.

[3] = system: MCF7 breast cancer cells; assay: MTT proliferation assay, MCF7; type: cell-based, human; settings: 24 h proliferation assay
Method: as §1, §2

[4] = system: primary human foreskin fibroblasts (HFF); assay: MTT proliferation assay, HFF; type: cell-based; settings: 24 h proliferation assay
Method: as §1, §2

[5] = system: HeLa cells; assay: cell-cycle analysis by PI flow cytometry; type: cell-based, human; settings: cisplatin 10 μM, 24 h (Fig. 4c)
Method: Figure 4 [Ru(dppz)2(PIP)]^2+ induces Chk1 checkpoint kinase activation and G1-S cell-cycle arrest. […] See SI for densitometry. (c) Cell-cycle distributions of HeLa cells incubated with DMSO (0.2%), 1 or 2 at the stated concentrations and time. DNA content was quantified using propidium iodide (PI) and analysed by flow cytometry. […] Data mean of three independent experiments +/− SD. […] They are copied as bare numbers, left to right. / The gate numbers in panel c are very small, so 3, 5, 6, 8 and 9 cannot be told apart with certainty. All the values below are best readings. / DMSO: 0.86, 57.4, 22.5, 16.8 uncertain / 1 (40 μM, 3 h): 0.46, 72.7, 13.5, 8.77 uncertain / 1 (40 μM, 8 h): 1.69, 73.2, 15.3, 3.6 uncertain / 1 (40 μM, 24 h): 1.2, 72.9, 15.8, 6.47 uncertain. […] 32.4 is partly overlapped by the peak line.
Cells were washed with PBS and detached using Trypsin. After centrifugation at 1000 rpm for 5 min, cells were fixed in cold 70% ethanol for 30 mins, centrifuged and re-suspended in PBS. Samples were stained using 10 μg/ml propidium iodide (PI) and 200 μg/ml RNAase A for 30 mins before FACS analysis using a Biosciences LSRII Flow Cytometer. A minimum of 10,000 cells were counted for each sample and data were processed using FloJo software. […]

| Compound | morphological evidence of apoptosis (pyknosis/karyorrhexis) [1] [%] | IC50 [2] [µM] | IC50 ([2]; Homo sapiens, HeLa, 24 h) [µM] | IC50 [3] [µM] | IC50 ([3]; Homo sapiens, MCF7, 24 h) [µM] | IC50 [4] [µM] | IC50 ([4]; Homo sapiens, Fibroblast, 24 h) [µM] | cells with sub-G1 DNA content [5] |
| --- | --- | --- | --- | --- | --- | --- | --- | --- |
| O=c1[nH]c2ccc(Cl)cc2c(N[C@@H]2CN3CCC2CC3)c1-c1nc2ccccc2[nH]1 [CHIR-124, reference compound] | < 5 | – | – | – | – | – | – | – |
| O=C1c2c(O)ccc(O)c2C(=O)c2c(NCCNCCO)ccc(NCCNCCO)c21 [MX, mitoxantrone] | – | 3 | < 5 | 3.6 | < 5 | 4.2 | < 5 | – |
| N.N.[Cl][Pt][Cl] [Cisplatin, cis-diamminedichloroplatinum(II)] | – | 9 | – | 11 | – | > 100 | – | ~ 30% |
